Data from paper PMC7290078, “Agonist bias and agonist‐dependent antagonism at corticotrophin releasing factor receptors” (Pharmacology Research & Perspectives, 2020).

How the values were obtained:
CRF2 receptor (hCRF2α) [1] = target: T1, CRF2 receptor (hCRF2α) (Homo sapiens, UniProt Q13324); assay: Antagonism of agonist-mediated cAMP accumulation in Cos7 cells expressing CRF2 receptors; format: cell-based; conditions: for antagonist potency (pKB): hCRF2α, global Schild analysis, mean ± SEM, n = 5
T1 construct: host or cells: Cos7 cells, transient transfection (PEI), pcDNA3.0/3.1 vector
T1 sequence (Q13324 1-411): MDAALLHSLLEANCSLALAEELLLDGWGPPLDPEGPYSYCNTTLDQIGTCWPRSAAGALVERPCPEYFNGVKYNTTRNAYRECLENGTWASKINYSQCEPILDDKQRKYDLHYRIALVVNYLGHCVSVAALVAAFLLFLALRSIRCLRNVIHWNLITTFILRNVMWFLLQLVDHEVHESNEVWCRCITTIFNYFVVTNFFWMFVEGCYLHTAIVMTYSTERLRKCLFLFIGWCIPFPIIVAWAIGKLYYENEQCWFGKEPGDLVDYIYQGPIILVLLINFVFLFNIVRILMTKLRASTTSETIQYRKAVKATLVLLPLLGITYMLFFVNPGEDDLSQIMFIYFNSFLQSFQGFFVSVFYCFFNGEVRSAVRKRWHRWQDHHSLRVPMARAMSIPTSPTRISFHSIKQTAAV
Source text: (§1) Plasmids containing hCRF1α and hCRF2α (GenBank accession numbers AY457172 and AY449734) were obtained from the cDNA Resource Centre (Bloomsburg University) and are referred to as CRF1 and CRF2 in this manuscript. Hemagglutinin (HA) epitope‐tagged human Calcitonin (CT) receptor (CT(a) splice variant) and myc‐tagged human RAMP1 were used as described previously. ^27 HA‐tagged human calcitonin receptor‐like receptor (CLR), N‐terminal FLAG‐tagged human RAMP3 and N‐terminal myc‐tagged human RAMP3 were a gift from Professor David Poyner (Aston University) and Professor Patrick Sexton (Monash University), respectively. N‐terminal FLAG‐tagged human RAMP2 was used as described previously. ^28 All receptors and RAMPs were cloned in pcDNA3.0 or pcDNA3.1 plasmid vectors. All plasmid inserts were sequenced at the Centre for Genomics, Proteomics and Metabolomics (University of Auckland) and the sequences were verified prior to use.
Cos7, HEK‐293S, and HEK‐293T cells were cultured as described previously. ^28 , ^29 Cos7 cells were originally supplied by the ATCC to Associate Professor Nigel Birch (University of Auckland). HEK‐293S cells were a gift from Professor David Poyner (Aston University) and HEK‐293T cells a gift from Professor John Taylor (University of Auckland). Briefly, all cell lines were cultured in Dulbecco's Modified Eagle Medium (DMEM) supplemented with 8% heat inactivated fetal bovine serum (FBS) and maintained in a humidified incubator at 37°C with 5% CO2. For transfection, cells were counted (Countess CounterTM; Life Technologies) and plated at a density of 20 000 cells per well in 96‐well plates. The cells were transiently transfected 48 hours prior to assaying using polyethylenimine (PEI), as described previously. ^28 , ^29 In all experiments a total of 0.25 μg DNA was transfected per well. In the majority of experiments 0.25 μg DNA of receptor‐containing plasmid or the pcDNA3.1 plasmid without an insert was used. For experiments involving RAMPs, 0.125 μg of receptor DNA and 0.125 μg of RAMP‐containing plasmid DNA were transfected to give a 1:1 ratio of receptor to RAMP. Where the RAMP or receptor were transfected alone, the ratio of DNA was made up with the pcDNA3.1 plasmid.
cAMP accumulation in Cos7 cells transfected with hCRF1α or hCRF2α receptors was measured using the LANCE cAMP detection assay kit (PerkinElmer Life and Analytical Sciences) as described previously. ^30 Briefly, culture media was removed and replaced with DMEM containing 0.1% bovine albumin serum (BSA) and 1 mmol/L 3‐isobutyl‐1‐methylxanthine (IBMX) for 30 minutes at 37°C. Cells were incubated for an additional 15 minutes at 37°C with media or agonist concentrations of 1 pmol/L to 1 µmol/L for agonist only assays or 10 pmol/L to 10 µmol/L concentrations for antagonist experiments. Antagonists were added simultaneously or immediately prior to the addition of agonists. To stop cell stimulation and extract cAMP, the contents of the wells were replaced with 50 µL absolute ethanol. Samples were left at −20°C for a minimum of 10 minutes. The ethanol was evaporated and replaced with 50 µL of cAMP detection buffer. Samples were shaken for 15 minutes before 5 µL cell lysate was transferred to a white 384‐well optiplate and processed for cAMP quantification as described previously. ^31 Samples were read using an Envision plate reader (PerkinElmer). cAMP concentrations were determined from a standard curve generated in duplicate.
In all experiments the position of peptides and antagonists (pharmacology) or transfected receptors (ELISAs) on assay plates was randomized during each independent experiment, which are independent biological replicates. In all cases, duplicate, triplicate, or quadruplicate technical replicates were conducted for each independent experiment.

CRF2 receptor (hCRF2α) [2] = target: T1, CRF2 receptor (hCRF2α); assay: Antagonism of agonist-mediated IP1 accumulation in Cos7 cells expressing CRF2 receptors; format: cell-based
Source text: as §1
Cos7, HEK‐293S, and HEK‐293T cells were cultured as described previously. ^28 , ^29 Cos7 cells were originally supplied by the ATCC to Associate Professor Nigel Birch (University of Auckland). HEK‐293S cells were a gift from Professor David Poyner (Aston University) and HEK‐293T cells a gift from Professor John Taylor (University of Auckland). Briefly, all cell lines were cultured in Dulbecco's Modified Eagle Medium (DMEM) supplemented with 8% heat inactivated fetal bovine serum (FBS) and maintained in a humidified incubator at 37°C with 5% CO2. For transfection, cells were counted (Countess CounterTM; Life Technologies) and plated at a density of 20 000 cells per well in 96‐well plates. […]
The IP‐one Gq assay kit (Cisbio) was used to quantify accumulated myo‐inositol‐1‐phosphate (IP1), a by‐product of IP3 produced after receptor‐mediated Gαq activation in Cos7 and HEK‐293S cells. […] Fifteen microliters of sample was then transferred to a 384‐well optiplate and read by an Envision plate reader (PerkinElmer). IP1 concentrations were calculated from a standard curve generated in duplicate. […]

Compound: CCC(CC)Nc1cc(C)nc(Oc2c(C)cc(C)cc2C)c1C [CP‐376,395]
- effect on CRF‐mediated cAMP accumulation (CRF2 receptor (hCRF2α) [1]; 100 µM, CRF2 receptor): no effect
- effect on UCN1‐mediated cAMP accumulation (CRF2 receptor (hCRF2α) [1]; 100 µM, CRF2 receptor): no effect
- antagonist potency (pKB) (CRF2 receptor (hCRF2α) [1]; agonist CRF, cAMP): <4
- antagonist potency (pKB) (CRF2 receptor (hCRF2α) [1]; agonist UCN1, cAMP): <4
- effect on CRF‐mediated IP1 accumulation (CRF2 receptor (hCRF2α) [2]; 100 µmol/L, CRF2 receptor): appeared to be abolished
- effect on agonist E max (CRF2 receptor (hCRF2α) [2]; IP1, CRF2 receptor, F tests): a reduction in E max
- antagonist potency (pKB) (CRF2 receptor (hCRF2α) [2]; agonist UCN1, IP1, hCRF2α, Gaddum method for insurmountable antagonism, mean ± SEM, n = 6): 3.40 ± 0.29
